Measurements from the CheMixHub viscosity set.

Assay: xn = mol fraction of the nth substance listed

Clc1ccccc1Cl + CCNc1ccccc1
viscosity [mPa·s], 101 kPa
Settings	303.15 K	308.15 K
x2 = 0.0789	1.286	1.19
x2 = 0.1156	1.309	1.21
x2 = 0.1659	1.338	1.234
x2 = 0.2569	1.391	1.277
x2 = 0.3287	1.43	1.309
x2 = 0.3968	1.467	1.339
x2 = 0.4925	1.516	1.379
x2 = 0.5421	1.541	1.399
x2 = 0.6325	1.584	1.434
x2 = 0.6897	1.611	1.454
x2 = 0.7659	1.646	1.48
x2 = 0.8425	1.678	1.508
x2 = 0.9121	1.709	1.531

C=COC(C)=O + CCO
303.15 K, 101.33 kPa
Settings	viscosity [mPa·s]
x1 = 0.0998	0.787
x1 = 0.2001	0.651
x1 = 0.2995	0.564
x1 = 0.4007	0.501
x1 = 0.5002	0.457
x1 = 0.599	0.425
x1 = 0.7013	0.402
x1 = 0.8005	0.386
x1 = 0.9002	0.378

CC(C)c1ccccc1 + CCO
viscosity [mPa·s], 101 kPa
Settings	x1 = 0.0663	x1 = 0.1236	x1 = 0.2015	x1 = 0.2971	x1 = 0.4052	x1 = 0.5656	x1 = 0.7293
298.15 K	1.036	0.982	0.926	0.878	0.836	0.796	0.764
308.15 K	0.897	0.86	0.81	0.753	0.7	0.653	0.64

CCC(CC)CO + CCO
298.15 K, 101.33 kPa
Settings	viscosity [mPa·s]
x2 = 0.1055	5.144
x2 = 0.2003	4.502
x2 = 0.3067	3.844
x2 = 0.4044	3.291
x2 = 0.503	2.777
x2 = 0.6076	2.35
x2 = 0.6966	1.972
x2 = 0.8051	1.617
x2 = 0.9036	1.345

CCCCOC(C)=O + CCO
viscosity [mPa·s], 101 kPa
Settings	x1 = 0.0995	x1 = 0.1987	x1 = 0.2996	x1 = 0.4023	x1 = 0.4982	x1 = 0.5987	x1 = 0.693	x1 = 0.7968	x1 = 0.9004
298.15 K	0.937	0.835	0.765	0.71	0.668	0.647	0.639	0.641	0.648
303.15 K	0.871	–	0.712	0.663	–	0.612	0.61	0.616	0.621
308.15 K	0.797	0.719	0.657	0.621	0.591	0.582	0.582	0.582	0.587
313.15 K	0.734	0.671	0.621	0.591	0.563	0.558	0.555	0.562	–

CCCN + CCO
Settings	viscosity [mPa·s]
298.15 K, 100 kPa, x2 = 0.0515	0.3851
298.15 K, 100 kPa, x2 = 0.098	0.4053
298.15 K, 100 kPa, x2 = 0.2026	0.4571
298.15 K, 100 kPa, x2 = 0.2763	0.4993
298.15 K, 100 kPa, x2 = 0.3874	0.5717
298.15 K, 100 kPa, x2 = 0.4986	0.6539
298.15 K, 100 kPa, x2 = 0.6013	0.7371
298.15 K, 100 kPa, x2 = 0.7485	0.865
298.15 K, 100 kPa, x2 = 0.7991	0.9101
298.15 K, 100 kPa, x2 = 0.8981	0.9984
298.15 K, 100 kPa, x2 = 0.961	1.052
303.15 K, 101.33 kPa, x1 = 0.1084	0.9336
303.15 K, 101.33 kPa, x1 = 0.2091	0.8629
303.15 K, 101.33 kPa, x1 = 0.3178	0.7773
303.15 K, 101.33 kPa, x1 = 0.4096	0.7051
303.15 K, 101.33 kPa, x1 = 0.5111	0.6253
303.15 K, 101.33 kPa, x1 = 0.6177	0.5566
303.15 K, 101.33 kPa, x1 = 0.7059	0.5029
303.15 K, 101.33 kPa, x1 = 0.8061	0.4453
303.15 K, 101.33 kPa, x1 = 0.901	0.3982
313.15 K, 101.33 kPa, x1 = 0.1084	0.7854
313.15 K, 101.33 kPa, x1 = 0.2091	0.7216
313.15 K, 101.33 kPa, x1 = 0.3178	0.6541
313.15 K, 101.33 kPa, x1 = 0.4096	0.5979
313.15 K, 101.33 kPa, x1 = 0.5111	0.5352
313.15 K, 101.33 kPa, x1 = 0.6177	0.475
313.15 K, 101.33 kPa, x1 = 0.7059	0.4325
313.15 K, 101.33 kPa, x1 = 0.8061	0.3864
313.15 K, 101.33 kPa, x1 = 0.901	0.3474

Oc1ccccc1Cl + CCO
Settings	viscosity [mPa·s]
298.15 K, 101 kPa, x1 = 0.5	1.452

Oc1ccccc1Cl + CCOCCO
viscosity [mPa·s], 101 kPa
Settings	x1 = 0.0961	x1 = 0.193	x1 = 0.2907	x1 = 0.3894	x1 = 0.4889	x1 = 0.5893	x1 = 0.6906	x1 = 0.7928	x1 = 0.8959
303.15 K	2.185	2.825	3.45	3.996	4.376	4.53	4.41	4.05	3.486
308.15 K	1.948	2.453	2.949	3.365	3.66	3.784	3.706	3.43	3.005
313.15 K	1.725	2.133	2.524	2.868	3.106	3.215	3.17	2.974	2.664
318.15 K	1.567	1.887	2.19	2.449	2.63	2.724	2.702	2.57	2.341

C=COC(C)=O + CCc1ccccc1
viscosity [mPa·s], 101 kPa
Settings	x1 = 0.1246	x1 = 0.2478	x1 = 0.3516	x1 = 0.4658	x1 = 0.576	x1 = 0.6587	x1 = 0.7601	x1 = 0.8593	x1 = 0.9467
303.15 K	0.556	0.523	0.499	0.475	0.453	0.439	0.422	0.408	0.397
313.15 K	0.506	0.473	0.45	0.426	0.407	0.394	0.379	0.364	0.352

CC(C)c1ccccc1 + CCc1ccccc1
101.33 kPa, x1 = 0.4675
Settings	viscosity [mPa·s]
293.15 K	0.696
313.15 K	0.545

CCCCOC(C)=O + CN1CCCC1=O
viscosity [mPa·s], 101 kPa
Settings	x2 = 0.1327	x2 = 0.256	x2 = 0.3711	x2 = 0.4785	x2 = 0.5792	x2 = 0.6737	x2 = 0.7626	x2 = 0.8463	x2 = 0.9253
303.15 K	0.801	0.941	1.061	1.165	1.258	1.339	1.405	1.463	1.512
308.15 K	0.737	0.861	0.968	1.059	1.143	1.213	1.273	1.325	1.37
313.15 K	0.69	0.805	0.905	0.991	1.065	1.13	1.187	1.236	1.28
318.15 K	0.642	0.745	0.834	0.911	0.978	1.037	1.088	1.131	1.173

Oc1ccccc1Cl + CN(C)C=O
Settings	viscosity [mPa·s]
303.15 K, 101 kPa, x1 = 0.3286	3.443

CC(C)c1ccccc1 + CN(C)c1ccccc1
viscosity [mPa·s], 101 kPa
Settings	x1 = 0.2	x1 = 0.4	x1 = 0.6	x1 = 0.8
293.15 K	1.228	1.085	0.963	0.865
313.15 K	0.915	0.817	0.733	0.666

Oc1ccccc1Cl + CN(C)c1ccccc1
101 kPa
Settings	viscosity [mPa·s]
293.15 K, x1 = 0.1395	1.859
293.15 K, x1 = 0.2654	2.43
293.15 K, x1 = 0.3923	3.05
293.15 K, x1 = 0.5102	3.7
293.15 K, x1 = 0.5898	4.14
293.15 K, x1 = 0.6926	4.69
293.15 K, x1 = 0.743	4.89
293.15 K, x1 = 0.7994	5
293.15 K, x1 = 0.8299	4.98
293.15 K, x1 = 0.896	4.74
298 K, x1 = 0.1002	1.53
298 K, x1 = 0.199	1.698
298 K, x1 = 0.3025	2.194
298 K, x1 = 0.4016	2.558
298 K, x1 = 0.502	3.036
298 K, x1 = 0.6009	3.48
298 K, x1 = 0.6991	3.758
298 K, x1 = 0.8	3.852
298 K, x1 = 0.9019	3.691
303 K, x1 = 0.1002	1.384
303 K, x1 = 0.199	1.522
303 K, x1 = 0.3025	1.937
303 K, x1 = 0.4016	2.2
303 K, x1 = 0.502	2.564
303 K, x1 = 0.6009	2.904
303 K, x1 = 0.6991	3.121
303 K, x1 = 0.8	3.212
303 K, x1 = 0.9019	3.106
303.15 K, x1 = 0.1395	1.473
303.15 K, x1 = 0.2654	1.89
303.15 K, x1 = 0.3923	2.35
303.15 K, x1 = 0.5102	2.79
303.15 K, x1 = 0.5898	3.09
303.15 K, x1 = 0.6926	3.41
303.15 K, x1 = 0.743	3.505
303.15 K, x1 = 0.7994	3.545
303.15 K, x1 = 0.8299	3.545
303.15 K, x1 = 0.896	3.41
308 K, x1 = 0.1002	1.254
308 K, x1 = 0.199	1.366
308 K, x1 = 0.3025	1.702
308 K, x1 = 0.4016	1.951
308 K, x1 = 0.502	2.221
308 K, x1 = 0.6009	2.476
308 K, x1 = 0.6991	2.681
308 K, x1 = 0.8	2.757
308 K, x1 = 0.9019	2.662
313 K, x1 = 0.1002	1.171
313 K, x1 = 0.199	1.234
313 K, x1 = 0.3025	1.527
313 K, x1 = 0.4016	1.736
313 K, x1 = 0.502	1.965
313 K, x1 = 0.6009	2.152
313 K, x1 = 0.6991	2.335
313 K, x1 = 0.8	2.397
313 K, x1 = 0.9019	2.36
313.15 K, x1 = 0.1395	1.243
313.15 K, x1 = 0.2654	1.41
313.15 K, x1 = 0.3923	1.66
313.15 K, x1 = 0.5102	1.915
313.15 K, x1 = 0.5898	2.085
313.15 K, x1 = 0.6926	2.305
313.15 K, x1 = 0.743	2.4
313.15 K, x1 = 0.7994	2.47
313.15 K, x1 = 0.8299	2.475
313.15 K, x1 = 0.896	2.45
318 K, x1 = 0.1002	1.077
318 K, x1 = 0.199	1.122
318 K, x1 = 0.3025	1.382
318 K, x1 = 0.4016	1.56
318 K, x1 = 0.502	1.728
318 K, x1 = 0.6009	1.899
318 K, x1 = 0.6991	2.05
318 K, x1 = 0.8	2.173
318 K, x1 = 0.9019	2.028

CCCN + CNC(C)=O
308.15 K, 101 kPa
Settings	viscosity [mPa·s]
x2 = 0.0288	0.3203
x2 = 0.161	0.4788
x2 = 0.322	0.6904
x2 = 0.4077	0.8508
x2 = 0.5208	1.16
x2 = 0.6414	1.544
x2 = 0.7368	1.882
x2 = 0.8217	2.222
x2 = 0.9755	3.191
